This note sets out measurements from ChEMBL document CHEMBL3739282, “An efficient green synthesis of 2-arylbenzothiazole analogues as potent antibacterial and anticancer agents” (Bioorg Med Chem Lett, 2016).

≈ marks a conversion by molar mass, not a printed value.

In one data set the test system is Staphylococcus aureus. Nature of the data set: Antibacterial activity against Staphylococcus aureus assessed as growth inhibition incubated for 24 hrs at 37 degC by agar well diffusion method. The class given is functional.
The next data set has as its system Escherichia coli. In words: Antibacterial activity against Escherichia coli assessed as growth inhibition incubated for 24 hrs at 37 degC by agar well diffusion method. The class given is functional. (In general: Agar diffusion results depend on both activity and mobility in agar.)
Another data set concerns Bacillus subtilis. In words: Antibacterial activity against Bacillus subtilis assessed as growth inhibition incubated for 24 hrs at 37 degC by agar well diffusion method. The class given is functional.
In a further data set the test system is Salmonella. In words: Antibacterial activity against Salmonella assessed as growth inhibition incubated for 24 hrs at 37 degC by agar well diffusion method. The class given is functional.
The next data set relates to MCF7. In words: Cytotoxicity against human MCF7 cells assessed as cell death after 24 hrs by MTT assay. The class given is functional, cell-based. The conditions noted are these: MCF7, 24 h.
A further data set has as its system HeLa. Nature of the data set: Cytotoxicity against human HeLa cells assessed as cell death after 24 hrs by MTT assay. It counts as functional, cell-based. (Formazan colour is commonly taken as a measure of viable cells.)
A short description of data set [1]: Stability of the compound in GSH at 10^-5 M after 48 hrs by UV-vis spectroscopic analysis. It counts as physicochemical. The conditions noted are these: 10 µM.

The term MIC denotes the lowest concentration that inhibits growth of the organism. Take GENTAMICIN: the MIC with Staphylococcus aureus turned out to be 1 µg/mL; in the data set on Escherichia coli, 2 µg/mL; in the data set with Bacillus subtilis, 2 µg/mL; in the data set with Salmonella, 2 µg/mL.

The term IC50 denotes the concentration needed to halve the response being measured. For `c1ccc(-c2nc3ccccc3s2)cc1` [2-PHENYLBENZO[D]THIAZOLE], the IC50 came out at 18.5 µM with MCF7 and 22.1 µM in the data set with HeLa. The minimum inhibitory concentration (MIC) in the data set with Staphylococcus aureus came to 50 µg/mL (≈ 237 µM); in the data set with Escherichia coli it was 50 µg/mL (≈ 237 µM); with Bacillus subtilis, 25 µg/mL (≈ 118 µM); in the data set on Salmonella it was 25 µg/mL (≈ 118 µM). Further, the Stability result in data set [1] is recorded as “Stable”.

For `NC[C@H]1O[C@H](O[C@H]2[C@H](O)[C@@H](O[C@H]3O[C@H](CO)[C@@H](O)[C@H](N)[C@H]3O)[C@H](N)C[C@@H]2N)[C@H](N)C[C@@H]1O` [TOBRAMYCIN], the MIC with Staphylococcus aureus is 1.5 µg/mL (≈ 3.21 µM); with Escherichia coli, 3 µg/mL (≈ 6.42 µM); with Bacillus subtilis it was 3 µg/mL (≈ 6.42 µM); in the data set on Salmonella, 3 µg/mL (≈ 6.42 µM).

`Oc1ccccc1-c1nc2ccccc2s1`: the values for the half-inhibitory concentration (IC50) in the data set with MCF7 and with HeLa were 26.8 µM and 30.6 µM, respectively. For the same compound, the MIC in the data set with Staphylococcus aureus, with Escherichia coli, with Bacillus subtilis and in the data set with Salmonella was 100 µg/mL (≈ 440 µM) each time.

With `c1ccc2cc(-c3nc4ccccc4s3)ccc2c1`, the 50% inhibitory concentration (IC50) in the data set with MCF7 turned out to be 42.3 µM; in the data set with HeLa it was 48.2 µM. The minimum inhibitory concentration (MIC) in the data set on Staphylococcus aureus, with Escherichia coli, with Bacillus subtilis and in the data set on Salmonella was > 200 µg/mL throughout.

`Cc1ccccc1-c1nc2ccccc2s1`: the IC50 in the data set on MCF7 is 20.4 µM; in the data set with HeLa, 28.2 µM. Also, the MIC in the data set on Staphylococcus aureus, in the data set with Escherichia coli, with Bacillus subtilis and in the data set with Salmonella was 100 µg/mL (≈ 444 µM) in each case.

For the compound `O=C(O)c1cn(C2CC2)c2cc(N3CCNCC3)c(F)cc2c1=O` [CIPROFLOXACIN], the MIC with Bacillus subtilis came out at 25 µg/mL (≈ 75.4 µM); in the data set with Salmonella, 10 µg/mL (≈ 30.2 µM).

As for `c1coc(-c2nc3ccccc3s2)c1`, the results for the 50% inhibitory concentration (IC50) with MCF7 and with HeLa were 17.6 µM and 22.6 µM, respectively. For the same compound, the minimum inhibitory concentration (MIC) with Staphylococcus aureus, in the data set on Escherichia coli, in the data set with Bacillus subtilis and in the data set with Salmonella was 50 µg/mL (≈ 248 µM) each time.

For the compound `COc1cccc(-c2nc3ccccc3s2)c1O`, the results for the IC50 with MCF7 and in the data set with HeLa were 28.6 µM and 32.6 µM, respectively. The MIC with Staphylococcus aureus, in the data set with Escherichia coli, in the data set on Bacillus subtilis and with Salmonella was > 200 µg/mL throughout.

With `Clc1ccccc1-c1nc2ccccc2s1`, the half-inhibitory concentration (IC50) in the data set on MCF7 is 10.7 µM; in the data set with HeLa, 18.2 µM. The MIC in the data set with Staphylococcus aureus, with Escherichia coli, in the data set on Bacillus subtilis and in the data set with Salmonella was 12.5 µg/mL (≈ 50.9 µM) in each case.

With `Fc1ccc(-c2nc3ccccc3s2)cc1`, the results for the half-maximal inhibitory concentration (IC50) with MCF7 and in the data set with HeLa were 9.85 µM and 16.6 µM, respectively. The minimum inhibitory concentration (MIC) in the data set with Staphylococcus aureus is 6.25 µg/mL (≈ 27.3 µM); in the data set with Escherichia coli, 6.25 µg/mL (≈ 27.3 µM); in the data set with Bacillus subtilis, 12.5 µg/mL (≈ 54.5 µM); in the data set with Salmonella, 12.5 µg/mL (≈ 54.5 µM).

In the case of `Brc1cccc(-c2nc3ccccc3s2)c1`, the figures for the half-inhibitory concentration (IC50) in the data set with MCF7 and with HeLa were 10.5 µM and 17.4 µM, respectively. The MIC in the data set with Staphylococcus aureus, in the data set on Escherichia coli, in the data set on Bacillus subtilis and with Salmonella was 12.5 µg/mL (≈ 43.1 µM) each time.

With `c1ccc2[nH]c(-c3nc4ccccc4s3)cc2c1`, the IC50 with MCF7 was found to be 9.26 µM; in the data set with HeLa, 15.2 µM. Besides, the minimum inhibitory concentration (MIC) in the data set with Staphylococcus aureus, in the data set on Escherichia coli, in the data set with Bacillus subtilis and in the data set with Salmonella was 3.12 µg/mL (≈ 12.5 µM) in each case.

With `c1ccc(-c2nc3ccccc3s2)nc1`, the concentration for half-maximal inhibition (IC50) in the data set with MCF7 amounted to 20.4 µM; with HeLa it was 27.5 µM. For the same compound, the minimal inhibitory concentration (MIC) is 6.25 µg/mL (≈ 29.4 µM) with Staphylococcus aureus, 12.5 µg/mL (≈ 58.9 µM) with Escherichia coli, 12.5 µg/mL (≈ 58.9 µM) in the data set with Bacillus subtilis and 12.5 µg/mL (≈ 58.9 µM) with Salmonella. In addition, the Stability result in data set [1] is “Stable”.

As to `c1csc(-c2nc3ccccc3s2)c1`, the IC50 was determined as 22.6 µM with MCF7 and 28.5 µM in the data set with HeLa. The MIC in the data set with Staphylococcus aureus is 12.5 µg/mL (≈ 57.5 µM); in the data set on Escherichia coli, 12.5 µg/mL (≈ 57.5 µM); in the data set on Bacillus subtilis it was 25 µg/mL (≈ 115 µM); in the data set with Salmonella, 25 µg/mL (≈ 115 µM).
